The values below are quoted from earlier work in US11020355B2, “Method of encapsulating cannabinoids in phospholipid carriers” (NuVessl, Inc., priority 2018, dated 2021).

Like-named read-outs stand apart in the source and are kept apart here.

Details of series [1]: AUC (0-10.5 hours): unit not given beside the values. The following applies: oromucosal, historic data.
For series [2] the following is noted: oral administration.

As for `C=C(C)[C@@H]1CCC(C)=C[C@H]1c1c(O)cc(CCCCC)cc1O` [CBD, cannabidiol], the C max in series [1] (10 mg CBD) is reported as 3.0 microgram per liter (nanogram per mL); in series [1] (15 mg CBD), 3.7 microgram per liter (nanogram per mL). In addition, the “AUC (0-10.5 hours)” value in series [1] (5-15 mg CBD) was 4.1-12.6. In addition, the Tmax (in general, the time from dosing to the highest level) in series [1] (5-15 mg CBD) is 3.6 to 4.5 h. Moreover, in series [2], the bioavailability is 6%-15%.
